{"source": "patent US7910111B2", "about": "“Inhibitors of N-ethylmaleimide sensitive factor” (The Johns Hopkins University, priority 2003, dated 2011)", "key": {"[1]": {"biological_target": "T1, recombinant NSF (Cricetulus griseus, UniProt P18708)", "T1 construct": "RGS-(His)6 (N); made in house; host or cells: bacteria", "T1 sequence (P18708 whole entry)": "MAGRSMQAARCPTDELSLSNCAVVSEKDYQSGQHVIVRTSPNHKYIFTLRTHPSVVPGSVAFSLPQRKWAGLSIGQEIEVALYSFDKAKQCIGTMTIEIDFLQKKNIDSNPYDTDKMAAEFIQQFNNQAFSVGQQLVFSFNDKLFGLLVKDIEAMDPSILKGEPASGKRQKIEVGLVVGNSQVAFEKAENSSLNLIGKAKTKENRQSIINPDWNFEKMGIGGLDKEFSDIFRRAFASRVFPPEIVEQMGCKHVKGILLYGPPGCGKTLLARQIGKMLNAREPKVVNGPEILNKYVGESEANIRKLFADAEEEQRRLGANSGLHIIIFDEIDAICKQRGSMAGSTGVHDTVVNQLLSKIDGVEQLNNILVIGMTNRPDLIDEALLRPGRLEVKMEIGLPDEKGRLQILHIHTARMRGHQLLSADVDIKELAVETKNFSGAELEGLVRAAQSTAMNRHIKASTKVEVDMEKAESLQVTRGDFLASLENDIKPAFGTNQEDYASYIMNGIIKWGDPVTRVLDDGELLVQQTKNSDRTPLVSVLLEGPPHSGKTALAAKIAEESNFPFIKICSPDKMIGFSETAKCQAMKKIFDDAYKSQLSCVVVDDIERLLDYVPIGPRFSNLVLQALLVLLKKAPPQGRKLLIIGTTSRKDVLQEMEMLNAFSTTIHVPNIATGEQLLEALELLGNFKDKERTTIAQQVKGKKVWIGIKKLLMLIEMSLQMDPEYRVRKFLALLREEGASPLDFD", "assay": "S-nitrosylation of recombinant NSF (Saville reaction)", "assay_type": "biochemical", "conditions": "1 mM DEA-NONOate", "protocol": "The number of cysteine residues that are nitrosylated by exogenous NO was next measured. Recombinant NSF was exposed to increasing amounts of DEA-NONOate, and then the Saville reaction was used to measure the number of nitrosocysteine residues per molecule of NSF. NO nitrosylates NSF in a dose-dependent manner (FIG. 4C). At 1 mM DEA-NONOate, approximately 3 cysteine residues are modified by NO per each molecule of NSF.\nMeasurement of cysteine residues nitrosylated in vitro was performed by the Saville and Griess assays (Saura et al., 1999). Measurement of NSF nitrosylated in cultured cells was performed by immunoprecipitation with antibody to nitrosocysteine, followed by immunoblotting with antibody to NSF. Measurement of cysteine residues nitrosylated in vivo was performed as previously (Jaffrey et al., 2001; Jaffrey and Snyder, 2001)."}, "[2]": {"biological_target": "T1, recombinant NSF", "assay": "NSF ATPase assay (coupled colorimetric assay)", "assay_type": "biochemical", "conditions": "recombinant NSF", "protocol": "The effect of NO upon NSF activity was next explored, since NO inhibits Weibel-Palade body exocytosis, and since NSF regulates Weibel-Palade body exocytosis. The effect of NO upon the ATPase activity of NSF was first examined. DEA-NONOate was added to recombinant NSF, and the ATPase activity of NSF was measured.\n(§1) The ATPase activity of NSF was measured by a coupled assay, in which ATP utilization is linked to the pyruvate kinase reaction, which generates pyruvate, which in turn is measured continuously with lactate dehydrogenase (Huang and Hackney, 1994). Recombinant NSF (0.2 μg/μl) was pre-treated with buffer or DEA or DEA-NONOate or NEM for 10 min at 22° C. ATPase reaction buffer (100 mM HEPES buffer, pH 7.0, 100 mM KCl, 10 mM MgCl2, 5 mM CaCl2, 10 mM ATP, 5 mM phosphoenol pyruvate, 50 U lactate dehydrogenase, and 50 U pyruvate kinase) was added to the mixture, followed by 10 μl of NADH (2 mg/ml in 1% sodium bicarbonate). The mixture was incubated for 10 min at 22° C., and the absorbance was measured at 340 nm.\nThe effect of the TAT-NSF peptide inhibitors upon the ability of NSF to hydrolyze ATP was measured. 10 μM TAT-NSF peptides was added to recombinant NSF, and the hydrolysis of ATP was measured. All 5 TAT-NSF peptides inhibited NSF ATPase activity (FIG. 8A). […] The effects of TAT-NSF81 (SEQ ID NO: 6) upon NSF were further defined. TAT-NSF81 (SEQ ID NO: 6) inhibits NSF ATPase activity in a dose-dependent manner with an IC50% between 1-10 μM (FIG. 8B).\nas §1, with “TAT-NSF peptides” for “DEA or DEA-NONOate or NEM”"}, "[3]": {"biological_target": "T2, NSF disassembly of the SNARE complex (Cricetulus griseus, UniProt P18708)", "T2 construct": "made in house; host or cells: bacteria (NSF, alpha-SNAP); BL21 cells (GST-SNAREs)", "T2 sequence (P18708 whole entry)": "as above", "T2 sequence (P81125 whole entry partner)": "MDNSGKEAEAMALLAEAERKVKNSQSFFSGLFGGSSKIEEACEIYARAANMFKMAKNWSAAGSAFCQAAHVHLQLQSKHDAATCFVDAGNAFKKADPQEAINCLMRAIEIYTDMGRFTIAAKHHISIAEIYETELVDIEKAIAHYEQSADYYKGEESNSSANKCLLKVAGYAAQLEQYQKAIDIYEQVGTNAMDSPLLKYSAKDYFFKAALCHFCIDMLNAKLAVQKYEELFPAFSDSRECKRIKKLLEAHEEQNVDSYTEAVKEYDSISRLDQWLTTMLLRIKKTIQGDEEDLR", "T2 sequence (Q12846 whole entry partner)": "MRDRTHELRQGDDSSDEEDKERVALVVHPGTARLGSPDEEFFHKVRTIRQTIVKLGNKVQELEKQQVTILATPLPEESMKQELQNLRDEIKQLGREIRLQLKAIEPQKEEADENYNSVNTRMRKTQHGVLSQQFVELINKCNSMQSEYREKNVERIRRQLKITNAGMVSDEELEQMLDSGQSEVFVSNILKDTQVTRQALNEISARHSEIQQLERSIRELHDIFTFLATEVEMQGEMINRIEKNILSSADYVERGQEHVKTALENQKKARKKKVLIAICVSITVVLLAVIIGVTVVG", "T2 sequence (Q15836 whole entry partner)": "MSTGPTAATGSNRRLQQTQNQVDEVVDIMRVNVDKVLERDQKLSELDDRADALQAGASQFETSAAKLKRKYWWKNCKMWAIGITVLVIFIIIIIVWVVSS", "T2 sequence (O00161 whole entry partner)": "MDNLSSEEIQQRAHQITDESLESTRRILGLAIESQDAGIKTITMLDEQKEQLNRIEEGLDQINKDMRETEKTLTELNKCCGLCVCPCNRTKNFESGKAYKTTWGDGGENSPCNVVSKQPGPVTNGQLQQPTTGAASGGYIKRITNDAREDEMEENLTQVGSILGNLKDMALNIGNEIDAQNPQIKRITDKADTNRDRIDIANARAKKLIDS", "assay_type": "biochemical", "conditions": "ATP"}, "[4]": {"system": "human aortic endothelial cells (HAEC)", "conditions": "HAEC pre-treated with increasing amounts; DEA-NONOate 10 min, DETA-NONOate 16 h, SNAP 6 h, NEM 1 h, L-NAME 16 h", "protocol": "To explore the effect of NO upon granule exocytosis, thrombin induced exocytosis of Weibel-Palade bodies from human aortic endothelial cells (HAEC) which release von Willebrand's Factor (vWF) was studied. HAEC was pre-treated with an NO donor 2-(N,N-diethylamino)-diazenolate-2-oxide (DEA-NONOate) 10 mM or with DEA as a control, stimulated the cells with thrombin 1 U/ml for 1 h, and the amount of vWF released into the media was then measured. […] HAEC was then pre-treated with increasing amounts of various NO donors, including a rapidly releasing NO donor DEA-NONOate for 10 min, a slowly releasing NO donor DETA-NONOate for 16 h, or a nitrosothiol S-nitroso-penicillamine (SNAP) for 6 h; alternatively, cells were treated with NEM for 1 h.\nThe role of endogenous NO in the regulation of Weibel-Palade body exocytosis was then explored. HAEC was pre-treated with L-NAME for 16 h in order to inhibit endogenous NOS, and then the cells were stimulated with 1 U/ml thrombin for 1 h and vWF release was measured. […] HAEC was next pre-treated with vascular endothelial growth factor (VEGF) in order to activate endogenous NOS3. Cells were incubated with 50 ng/ml VEGF or control for 2 h, and then stimulated with thrombin.\nA peptide inhibitor of NSF that crosses cell membranes was designed. This peptide, designated TAT-NSF222, includes the protein transduction domain of HIV TAT (residues 47-57) previously shown to transduce polypeptides into cells (Becker-Hapak et al., 2001), fused to a fragment of NSF (residues 222-243) previously shown to inhibit NSF (Schweizer et al., 1998). […] HAEC were then incubated for 20 min with TAT-NSF222, or with a control peptide TAT-NSF222scr that consisted of the intact TAT domain followed by the amino acid residues of NSF 222-243 in a scrambled order. HAEC were transduced with TAT-NSF peptides, treated with media or thrombin, and the amount of vWF released into the media was measured by ELISA.\nSince NSF plays a general role in vesicle trafficking, permanent inactivation of NSF would slow vesicular trafficking in general. However, local production of NO at the plasma membrane and reversible nitrosylation of NSF could provide spatial regulation of NSF.\nHuman aortic endothelial cells (HAEC) and EGM-2 media were obtained from Clonetics (Walkersville, Md.). HAEC were pre-treated with NO donors, washed, stimulated with 1 U/mil of thrombin, and the amount of vWF released into the media was measured by an ELISA (American Diagnostica, Greenwich, Conn.). HAEC were permeabilized by incubation with 10 U/well of SLO (Sigma) in PBS pH 7.4 for 15 min at 37° C. (Walev et al., 2001). Some cells were incubated with 20-200 μg/ml of antibodies or with 100 μg/ml of recombinant NSF. Cells were then resealed by incubation with EGM-2 media for 4 h at 37° C., washed with EGM-2 media, and stimulated with thrombin as above.\nThe ability of TAT-NSF to affect exocytosis from cells was investigated. Endothelial cells release vWF by exocytosis when stimulated by thrombin. Accordingly, endothelial cells were incubated with increasing amounts of TAT-NSF peptides for 20 min, then treated with 1 U/ml thrombin, and the amount of vWF released into the media was measured by ELISA.\nHuman aortic endothelial cells (HAEC) and EGM-2 media were obtained from Clonetics (Walkersville, Md.). HAEC were pre-treated with TAT-NSF peptides for 20 min, washed, stimulated with 1 U/ml of thrombin, and the amount of vWF released into the media was measured by an ELISA (American Diagnostica, Greenwich, Conn.)."}}}
{"smiles": "CCN(CC)[N+]([O-])=NO", "note": "[DEA-NONOate, 2-(N,N-diethylamino)-diazenolate-2-oxide]", "values": [{"measurement": "cysteine residues modified by NO per molecule of NSF", "setting": "[1]", "value": "approximately 3"}, {"measurement": "effect on NSF ATPase activity", "setting": "[2]", "value": "does not significantly inhibit NSF hydrolysis of ATP"}, {"measurement": "effect on NSF disassembly of 20S SNARE complex from endothelial cell extracts", "setting": "[3]; NSF pre-treated with 1 mM for 10 min, HAEC membrane extracts", "value": "inhibits the ability of NSF to disassemble a 20S SNARE complex"}, {"measurement": "effect on NSF disassembly activity", "setting": "[3]; recombinant NSF, α-SNAP, GST-SNAREs, TAT-NSF peptides 1 μM in Example 2", "value": "inhibits NSF disassembly activity"}, {"measurement": "effect on thrombin induced vWF release, dose response", "setting": "[4]", "value": "inhibits thrombin induced vWF release"}]}
